Data: US8524455B2, “Methods and compositions related to TR4 ligand” (University of Rochester, priority 2009, dated 2013)

What was measured:
PPARγ/RXR = target: T1, PPARγ/RXR (Homo sapiens, UniProt P37231); assay: CD36-luc luciferase reporter assay, PPARγ/RXR co-transfected into CV-1 cells; assay type: cell-based; conditions: 24 h
T1 construct: expressed in transfected cells; host or cells: CV-1
T1 sequence (P37231 29-505 limits assumed): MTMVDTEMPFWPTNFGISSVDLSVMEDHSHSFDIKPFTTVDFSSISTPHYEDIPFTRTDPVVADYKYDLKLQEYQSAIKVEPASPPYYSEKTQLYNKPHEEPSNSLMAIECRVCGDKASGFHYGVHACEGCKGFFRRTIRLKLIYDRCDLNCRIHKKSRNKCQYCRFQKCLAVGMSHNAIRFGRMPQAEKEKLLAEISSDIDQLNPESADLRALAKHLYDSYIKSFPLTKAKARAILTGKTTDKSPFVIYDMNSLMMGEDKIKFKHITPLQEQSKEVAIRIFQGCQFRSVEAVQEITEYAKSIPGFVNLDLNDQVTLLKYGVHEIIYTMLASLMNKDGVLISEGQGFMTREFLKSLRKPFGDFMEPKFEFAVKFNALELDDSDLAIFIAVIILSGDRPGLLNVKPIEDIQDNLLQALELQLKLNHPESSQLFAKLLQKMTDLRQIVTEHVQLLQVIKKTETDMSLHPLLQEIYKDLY
T1 sequence (P19793 1-462 partner): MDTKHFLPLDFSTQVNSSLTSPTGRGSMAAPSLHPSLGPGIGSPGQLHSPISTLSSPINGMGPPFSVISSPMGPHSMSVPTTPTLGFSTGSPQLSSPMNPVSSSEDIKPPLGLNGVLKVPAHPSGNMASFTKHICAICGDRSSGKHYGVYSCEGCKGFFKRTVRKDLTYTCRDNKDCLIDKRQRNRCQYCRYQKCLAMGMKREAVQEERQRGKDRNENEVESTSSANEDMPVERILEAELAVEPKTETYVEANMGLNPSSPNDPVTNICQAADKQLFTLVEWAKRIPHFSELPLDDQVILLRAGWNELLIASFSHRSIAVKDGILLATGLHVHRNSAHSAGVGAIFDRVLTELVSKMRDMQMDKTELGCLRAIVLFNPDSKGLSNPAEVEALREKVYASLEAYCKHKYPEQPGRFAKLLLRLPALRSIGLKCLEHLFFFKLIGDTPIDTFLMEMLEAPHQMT

TR4 [1] = target: T2, TR4 (Homo sapiens, UniProt P49116); assay: CD36-luc luciferase reporter assay, TR4 co-transfected into CV-1 cells; assay type: cell-based; parameters: pCMX-TR4 plasmids consist of the full length human TR4 gene subcloned into pCMX vector; expressed in transfected cells; host or cells: CV-1; conditions: 24 h
T2 sequence (P49116 1-615 isoform P49116-2): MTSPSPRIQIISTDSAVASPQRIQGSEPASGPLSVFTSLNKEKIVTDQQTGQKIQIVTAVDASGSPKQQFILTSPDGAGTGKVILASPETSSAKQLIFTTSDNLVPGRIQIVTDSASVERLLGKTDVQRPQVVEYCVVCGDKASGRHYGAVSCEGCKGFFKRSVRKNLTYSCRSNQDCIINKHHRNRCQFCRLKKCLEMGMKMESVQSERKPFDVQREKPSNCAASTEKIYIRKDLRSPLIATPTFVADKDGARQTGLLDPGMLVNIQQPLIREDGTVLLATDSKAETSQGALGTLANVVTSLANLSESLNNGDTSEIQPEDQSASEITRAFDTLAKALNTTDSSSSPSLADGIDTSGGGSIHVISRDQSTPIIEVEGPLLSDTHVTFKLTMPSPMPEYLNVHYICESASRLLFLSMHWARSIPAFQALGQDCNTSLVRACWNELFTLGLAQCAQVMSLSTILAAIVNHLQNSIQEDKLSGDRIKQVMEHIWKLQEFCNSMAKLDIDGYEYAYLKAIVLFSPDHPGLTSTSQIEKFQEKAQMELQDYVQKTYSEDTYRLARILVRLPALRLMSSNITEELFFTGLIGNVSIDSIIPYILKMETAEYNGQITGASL
Procedure: After 24 h, cells were harvested for Luciferase activity. The relative luciferase activity was calculated while setting pCMX-TR4 in vehicle control as 1. (FIG. 6B) Protease protective peptide mapping were analyzed in liganded-PPARγ and TR4. […] The reaction was stopped by adding 2×SDS-sample buffer. The protease digestion pattern was resolved by gel electrophoresis in 12.5% (for PPARγ), and 16% (for TR4) SDS-PAGE. […] After 24 h, cells were harvested for Luciferase activity. The relative luciferase activity was calculated while setting pCMX-TR4 in vehicle control as 1.
Mouse macrophage RAW 264.7 cells, obtained from ATCC, were cultured in DMEM medium supplemented with 8% fetal bovine serum and 100 µg/ml penicillin-streptomycin and maintained on the petri-dishes. […] After 24 h, cells were harvested for luciferase assays.

TR4 [2] = target: T2, TR4; assay: Limited proteolysis (protease protective peptide mapping) of [35S]-TR4; assay type: binding; parameters: pCMX-TR4 plasmids consist of the full length human TR4 gene subcloned into pCMX vector; expressed in transfected cells; host or cells: H1299; conditions: incubated 15 min, trypsin 0.25 and 2.5 g/ml 10 min; compared to DMSO control
Procedure: (FIG. 6A) PUFAs metabolites induced PPAR- and TR4-mediated CD36 activity. […] After 24 h, cells were harvested for Luciferase activity. The relative luciferase activity was calculated while setting pCMX-TR4 in vehicle control as 1. (FIG. 6B) Protease protective peptide mapping were analyzed in liganded-PPARγ and TR4. […] The reaction was stopped by adding 2×SDS-sample buffer. The protease digestion pattern was resolved by gel electrophoresis in 12.5% (for PPARγ), and 16% (for TR4) SDS-PAGE. […] After 24 h, cells were harvested for Luciferase activity. The relative luciferase activity was calculated while setting pCMX-TR4 in vehicle control as 1.

[3] = 1 and 20 µM in DMSO, compared with AA and EPA
[4] = 1, 10, 50, 100 and 250 µM in BSA

Row | PPAR/RXR-mediated CD36 expression (CD36-luc luciferase activity) (PPARγ/RXR; [3]) | TR4-mediated CD36 expression (CD36-luc luciferase activity) (TR4 [1]; [3]) | PPAR/RXR-mediated CD36 expression (CD36-luc luciferase activity) (PPARγ/RXR; [4]) | TR4-mediated CD36 expression (CD36-luc luciferase activity) (TR4 [1]; [4]) | Structure (SMILES) | Protease digestion pattern of ligand-bound TR4 (TR4 [2])
1 | much better induction | much better induction |  |  | CCCCC[C@H](O)/C=C/C=C\C/C=C\C/C=C\CCCC(=O)O [15-HETE] | several changed proteolysis resisting fragments
2 | much better induction | much better induction |  |  | CCCCCC(O)/C=C/C=C\CCCCCCCC(=O)O (centres unmarked) [13-HODE] | several changed proteolysis resisting fragments
3 |  |  | mildly induced | mildly induced | CCCCC/C=C\C/C=C\C/C=C\C/C=C\CCCC(=O)O [AA, arachidonic acid] | 
